Laboratory results taken from US5377676A, “Method for determining the biodistribution of substances using fluorescence spectroscopy” (Cedars-Sinai Medical Center, priority 1993, dated 1995).

Columns and labels:
[1] = BPD-MA biodistribution by LIFS, Study #1; format: in vivo, male Lobund-Wistar rats; conditions: for I(690 nm)/I(540 nm), kidney / I(690 nm)/I(540 nm), large bowel / I(690 nm)/I(540 nm), liver / I(690 nm)/I(540 nm), mesenteric lymph nodes (MCLN) / I(690 nm)/I(540 nm), metast. L. node / I(690 nm)/I(540 nm), muscle / I(690 nm)/I(540 nm), non-met L. node / I(690 nm)/I(540 nm), skin / I(690 nm)/I(540 nm), small bowel: mean ± SD
Excerpt: (§1) The experimental arrangement used to measure the fluorescence spectra during abdominal exploration included a Helium-cadmium laser (Omnichrome, Chino, Calif.) operating at 442 nm as an excitation source. A 400 micron core diameter fiber was directed at the tissue in contact mode producing a low power (17 mW) illumination. Using the same fiber, reflected and emitted light was returned to the input of a SPEX 500 spectrometer (1422 G EG&G).
(§2) Laser output was reflected at a right angle by a dichroic mirror (HR/442 nm-H7>500 nm, CVI, New Mexico) and was focused at the input of a 400 micron core diameter fiberoptic probe. The excitation output of the laser at the distal end of the fiber was 17 mW. Fluorescence was collected using the same fiber and was transmitted through the dichroic beamsplitter and guided via a fiber bundle to a 0.5 spectrograph (100 g/mm diffraction grating with a split width of 50 microns). The light was then imaged at the modified output port. A 1024 element linear diode array detector (EG&G 1422G) was attached to the exit port, and the signal was directed to a multichannel intensifier. A longpass glass filter (Schott GG475) was used to exclude the excitation light from the detector and conversions were made by an analog to digital converter and automatically stored by a computer. […] Background spectra were recorded before excitation and subtracted from the resulting data. The detection system, including the detector attenuation filter, lenses and spectrograph, was not altered or corrected for a uniform spectral response.
(§3) Spectra from the surfaces of tumor (T), skin (S), muscle (M), liver (L), kidney (K), spleen (Sp), stomach (St), small bowel (SB) and large bowel (LB) were acquired and analyzed by the OMA. […] (FIG. 1 is a schematic representation of this experimental arrangement.) A series of spectra for Photofrin and BPD-MA were recorded from photosensitized animals. (FIGS. 2 and 3). The fluorescence intensities at 540 nm (auto-fluorescence) and 630 nm (Photofrin) or 690 nm (BPD-MA) were simultaneously monitored at three sites for each organ. By using the ratio of these intensities, (I630 nm /I540 nm) or (I690 nm /540 nm), a relative value could be assigned to each area studied. In addition, this intensity ratio eliminated any geometric factor (fiber position) influence in the calibration, as well as calibration errors. The corresponding intensity ratios were used as an index for drug presence in the various tissues.
(§4) The fluorescence emitted from cancerous and normal tissues of male Lobund-Wistar rats was investigated (Lobund Laboratory, Notre Dame University, Id.). All tumors were subcutaneously implanted by inoculating 10^5 viable cells of Pollard rat prostatic adenocarcinoma (PA-III) into the right flank of each animal. This tumor model was selected because it is known to metastasize uniformly and spontaneously from extravascular sites only through ipsilateral lymphatic channels. Because of this tumor's unique, predictable spread, the contralateral side of the animal could be used as a control. In addition, cancer detection is facilitated with this model because rats with PA-III cells survive beyond forty days after implantation without evidence of physical impairment.
(§5) Two separate experiments were performed to assess the biodistribution of BPD-MA. The first study involved 21 animals and two doses of BPD-MA, 0.25 mg/kg and 0.50 mg/kg, to determine the concentration effect of BPD-MA in various tissues. The second study involved 81 animals and 0.75 mg/kg of BPD-MA to determine the biodistribution of BPD-MA and the sensitivity and specificity of LIFS biodistribution measurements.
BPD-MA (QLT Phototherapeutics, Inc., Vancouver, Canada) was administered to 21 animals intravenously. The animals were divided into three groups of seven animals each and injected with two different doses of BPD-MA, 0.25 mg/kg (n=7) and 0.50 mg/kg (n=7) 4-6 hours prior to surgical exploration. Seven animals served as a control. […]

[2] = set-up: species or system male Lobund-Wistar rats; conditions: rat, in vivo, iv, 0.75 mg/kg
Excerpt: as §1, §2, §3, §4, §5
BPD-MA (QLT Phototherapeutics, Inc., Vancouver, Canada) was administered intravenously in a dose of 0.75 mg/kg to 81 animals 4 hours prior to surgical exploration.
As in Study #1, the animals were anesthetized with Ketamine 40 mg/kg and Xylazine 5.0 mg/kg intraperitoneally, and the abdomens opened through a midline incision. […]

[3] = BPD-MA biodistribution by LIFS, Study #1; set-up: species or system male Lobund-Wistar rats; conditions: rat, in vivo, iv, 0.5 mg/kg
[4] = after excitation by blue light; cited from earlier work
[5] = in vivo; cited from earlier work
[6] = Photofrin biodistribution by laser induced fluorescence spectroscopy (LIFS); format: in vivo, male Lobund-Wistar rats
Excerpt: as §1, §2, §3, §4
After forty-two days of observation, Photofrin (QLT Phototherapeutics, Inc., Vancouver, Canada) was administered intraperitoneally to forty-one animals 24-48 hours prior to surgical exploration in doses ranging from 0.25-7.5 mg/kg. Six animals were injected 24 hours prior to surgical exploration with 0.75 mg/kg of Photofrin. Thirty animals were injected with six different concentrations of Photofrin 48 hours prior to surgical exploration (7.5 mg/kg (n=5), 2.5 mg/kg (n=4), 1.5 mg/kg (n=3), 0.75 mg/kg (n=11), 0.50 mg/kg (n=4), and 0.25 mg/kg (n=3)). Five animals which had not been inoculated with PA-III were injected with 0.75 mg/kg 48 hours prior to surgical exploration, and served as a control. […]

[7] = Absorption / fluorescence of the photosensitizer; format: physicochemical; conditions: 442 nm excitation
Excerpt: as §1
Laser output was reflected at a right angle by a dichroic mirror (HR/442 nm-H7>500 nm, CVI, New Mexico) and was focused at the input of a 400 micron core diameter fiberoptic probe. The excitation output of the laser at the distal end of the fiber was 17 mW. Fluorescence was collected using the same fiber and was transmitted through the dichroic beamsplitter and guided via a fiber bundle to a 0.5 spectrograph (100 g/mm diffraction grating with a split width of 50 microns). […] Background spectra were recorded before excitation and subtracted from the resulting data. […]
Spectra from the surfaces of tumor (T), skin (S), muscle (M), liver (L), kidney (K), spleen (Sp), stomach (St), small bowel (SB) and large bowel (LB) were acquired and analyzed by the OMA. […] (FIG. 1 is a schematic representation of this experimental arrangement.) A series of spectra for Photofrin and BPD-MA were recorded from photosensitized animals. […]

[8] = 1.5 mg/kg i.p., 48 h, PA-III rats, mean ± SD
[9] = 2.5 mg/kg i.p., 48 h, PA-III rats, mean ± SD
[10] = 7.5 mg/kg i.p., 48 h, PA-III rats, mean ± SD

Benzoporphyrin derivative monoacid-A [BPD-MA]
I(690 nm)/I(540 nm), kidney ([1]; 4 Hours, 0.25 mg/kg i.v.): 1.04 ± 0.40
I(690 nm)/I(540 nm), large bowel ([1]; 4 Hours, 0.25 mg/kg i.v.): 1.27 ± 0.30
I(690 nm)/I(540 nm), liver ([1]; 4 Hours, 0.25 mg/kg i.v.): 7.83 ± 3.69
I(690 nm)/I(540 nm), mesenteric lymph nodes (MCLN) ([1]; 4 Hours, 0.25 mg/kg i.v.): 1.40 ± 0.27
I(690 nm)/I(540 nm), metast. L. node ([1]; 4 Hours, 0.25 mg/kg i.v.): 3.19 ± 2.31
I(690 nm)/I(540 nm), muscle ([1]; 4 Hours, 0.25 mg/kg i.v.): 1.73 ± 0.47
I(690 nm)/I(540 nm), non-met L. node ([1]; 4 Hours, 0.25 mg/kg i.v.): 3.55 ± 1.77
I(690 nm)/I(540 nm), skin ([1]; 4 Hours, 0.25 mg/kg i.v.): 0.31 ± 0.12
I(690 nm)/I(540 nm), small bowel ([1]; 4 Hours, 0.25 mg/kg i.v.): 7.63 ± 2.73
I(690 nm)/I(540 nm), kidney ([1]; 4 Hours, 0.50 mg/kg i.v.): 1.57 ± 0.32
I(690 nm)/I(540 nm), large bowel ([1]; 4 Hours, 0.50 mg/kg i.v.): 1.59 ± 0.45
I(690 nm)/I(540 nm), liver ([1]; 4 Hours, 0.50 mg/kg i.v.): 15.74 ± 9.25
I(690 nm)/I(540 nm), mesenteric lymph nodes (MCLN) ([1]; 4 Hours, 0.50 mg/kg i.v.): 3.12 ± 0.99
I(690 nm)/I(540 nm), metast. L. node ([1]; 4 Hours, 0.50 mg/kg i.v.): 6.73 ± 2.39
I(690 nm)/I(540 nm), muscle ([1]; 4 Hours, 0.50 mg/kg i.v.): 1.62 ± 0.82
I(690 nm)/I(540 nm), non-met L. node ([1]; 4 Hours, 0.50 mg/kg i.v.): 2.65 ± 0.62
I(690 nm)/I(540 nm), skin ([1]; 4 Hours, 0.50 mg/kg i.v.): 0.50 ± 0.17
I(690 nm)/I(540 nm), small bowel ([1]; 4 Hours, 0.50 mg/kg i.v.): 9.91 ± 5.08
I(690 nm)/I(540 nm), kidney ([1]; 6 Hours, 0.25 mg/kg i.v.): 0.78 ± 0.19
I(690 nm)/I(540 nm), large bowel ([1]; 6 Hours, 0.25 mg/kg i.v.): 2.37 ± 1.48
I(690 nm)/I(540 nm), liver ([1]; 6 Hours, 0.25 mg/kg i.v.): 5.20 ± 2.38
I(690 nm)/I(540 nm), mesenteric lymph nodes (MCLN) ([1]; 6 Hours, 0.25 mg/kg i.v.): 1.43 ± 0.67
I(690 nm)/I(540 nm), metast. L. node ([1]; 6 Hours, 0.25 mg/kg i.v.): 3.70 ± 2.82
I(690 nm)/I(540 nm), muscle ([1]; 6 Hours, 0.25 mg/kg i.v.): 0.78 ± 0.26
I(690 nm)/I(540 nm), non-met L. node ([1]; 6 Hours, 0.25 mg/kg i.v.): 2.77 ± 2.25
I(690 nm)/I(540 nm), skin ([1]; 6 Hours, 0.25 mg/kg i.v.): 0.30 ± 0.15
I(690 nm)/I(540 nm), small bowel ([1]; 6 Hours, 0.25 mg/kg i.v.): 4.98 ± 2.83
BPD-MA retention in organs with time ([1]; rat, in vivo, iv): BPD-MA retention in all organs decreased with time
Fluorescence intensity ratio (I630 nm/I540 nm), non-metastatic tissue ([1]; rat, in vivo, iv, 0.5 mg/kg): 2.65 ± 0.62
I(690 nm)/I(540 nm), spleen ([1]; rat, in vivo, iv, 0.5 mg/kg): 1.57 ± 0.31
I(690 nm)/I(540 nm), stomach ([1]; rat, in vivo, iv, 0.5 mg/kg): 2.95 ± 1.10
I(690 nm)/I(540 nm), tumor ([1]; rat, in vivo, iv, 0.5 mg/kg): 3.44 ± 1.14
Fluorescence intensity ratio mean, Left Iliac LN (LILN) [2]: 5.22
Fluorescence intensity ratio mean, Mesenteric I LN (MC I) [2]: 2.45
Fluorescence intensity ratio mean, Mesenteric II LN (MC II) [2]: 2.37
Fluorescence intensity ratio mean, Right Iliac LN (RILN) [2]: 5.86
Fluorescence intensity ratio mean, Right Inguinal LN (RIN) [2]: 4.72
Fluorescence intensity ratio mean, Right Para-Aortic LN (RPAR) [2]: 7.40
Fluorescence intensity ratio mean, Right Sub-Renalis LN (RSBR) [2]: 4.50
Fluorescence intensity ratio mean, Right Supra-Renalis LN (RSPR) [2]: 4.26
Fluorescence intensity ratio mean, inflammatory LN [2]: 3.67
Fluorescence intensity ratio mean, metastatic LN [2]: 6.26
Fluorescence intensity ratio mean, normal LN [2]: 3.06
Fluorescence intensity ratio (I630 nm/I540 nm), metastatic tissue [3]: 6.73 ± 2.39
Characteristic red fluorescence peak [4]: approximately 690 nm
Photosensitivity of the skin [5]: dramatically decreased photosensitivity of the skin

Photofrin
Fluorescence intensity ratio (I630 nm/I540 nm), skin [6, 8]: 0.23 ± 0.06
Fluorescence intensity ratio (I630 nm/I540 nm), small bowel [6, 8]: 0.56 ± 0.08
Fluorescence intensity ratio (I630 nm/I540 nm), spleen [6, 8]: 1.25 ± 0.35
Fluorescence intensity ratio (I630 nm/I540 nm), stomach [6, 8]: 0.92 ± 0.12
Fluorescence intensity ratio (I630 nm/I540 nm), tumor [6, 8]: 0.36 ± 0.01
Fluorescence intensity ratio (I630 nm/I540 nm), non metas L. node [6, 9]: 1.75 ± 1.06
Fluorescence intensity ratio (I630 nm/I540 nm), skin [6, 9]: 0.22 ± 0.04
Fluorescence intensity ratio (I630 nm/I540 nm), small bowel [6, 9]: 0.57 ± 0.30
Fluorescence intensity ratio (I630 nm/I540 nm), spleen [6, 9]: 0.72 ± 0.25
Fluorescence intensity ratio (I630 nm/I540 nm), stomach [6, 9]: 0.26 ± 0.01
Fluorescence intensity ratio (I630 nm/I540 nm), tumor [6, 9]: 0.70 ± 0.43
Fluorescence intensity ratio (I630 nm/I540 nm), skin [6, 10]: 0.25 ± 0.04
Fluorescence intensity ratio (I630 nm/I540 nm), small bowel [6, 10]: 0.96 ± 0.33
Fluorescence intensity ratio (I630 nm/I540 nm), spleen [6, 10]: 1.56 ± 0.68
Fluorescence intensity ratio (I630 nm/I540 nm), stomach [6, 10]: 0.62 ± 0.24
Fluorescence intensity ratio (I630 nm/I540 nm), tumor [6, 10]: 2.45 ± 1.00
Dose at which metastatic and non-metastatic lymph nodes are distinguished (selectivity) ([6]; rat, in vivo, 2880 min): higher than 0.25 mg/kg
Characteristic fluorescence peak [7]: ~ 630 nm
